Experimental data taken from ChEMBL document CHEMBL4507276 (2021).

How the values were obtained:
[1] = molecular target: T1, Ephrin type-B receptor 2 (Homo sapiens) (UniProt P29323); assay: EPHB2 Invitrogen selectivity data (BI); conditions: Compound concentration 3.0 uM
T1 sequence (whole entry): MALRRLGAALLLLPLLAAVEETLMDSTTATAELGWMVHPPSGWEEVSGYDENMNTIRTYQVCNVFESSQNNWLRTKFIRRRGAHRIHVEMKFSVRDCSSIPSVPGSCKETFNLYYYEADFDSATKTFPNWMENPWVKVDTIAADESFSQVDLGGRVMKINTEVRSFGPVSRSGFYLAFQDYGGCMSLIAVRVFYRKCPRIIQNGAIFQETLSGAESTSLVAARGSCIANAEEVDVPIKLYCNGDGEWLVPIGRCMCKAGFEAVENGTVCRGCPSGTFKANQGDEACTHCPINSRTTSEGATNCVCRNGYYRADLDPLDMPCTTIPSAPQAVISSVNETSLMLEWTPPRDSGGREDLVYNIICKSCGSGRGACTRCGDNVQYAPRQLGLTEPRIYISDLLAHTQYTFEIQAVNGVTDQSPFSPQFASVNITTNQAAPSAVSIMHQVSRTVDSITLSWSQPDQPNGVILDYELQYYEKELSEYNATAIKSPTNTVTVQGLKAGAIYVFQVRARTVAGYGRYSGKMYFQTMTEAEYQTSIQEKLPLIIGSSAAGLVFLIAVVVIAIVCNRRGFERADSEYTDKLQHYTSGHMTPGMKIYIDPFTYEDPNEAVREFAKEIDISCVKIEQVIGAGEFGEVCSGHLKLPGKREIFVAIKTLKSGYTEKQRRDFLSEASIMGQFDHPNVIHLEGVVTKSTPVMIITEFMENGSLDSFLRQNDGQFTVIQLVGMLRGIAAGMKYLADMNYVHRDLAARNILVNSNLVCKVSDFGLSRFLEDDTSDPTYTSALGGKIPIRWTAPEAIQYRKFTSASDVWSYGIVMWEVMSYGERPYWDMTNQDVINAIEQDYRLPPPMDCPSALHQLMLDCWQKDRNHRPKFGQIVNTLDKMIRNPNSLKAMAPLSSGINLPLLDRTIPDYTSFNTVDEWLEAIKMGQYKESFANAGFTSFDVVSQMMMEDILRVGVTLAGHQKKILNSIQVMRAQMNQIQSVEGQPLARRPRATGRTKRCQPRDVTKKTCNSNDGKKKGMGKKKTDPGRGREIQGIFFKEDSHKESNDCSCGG

[2] = molecular target: Mu-type opioid receptor (Homo sapiens) (UniProt P35372); assay: MU/HU Eurofins-Panlabs selectivity data (BI); conditions: Compound concentration 10.0 uM
Chain of Mu-type opioid receptor (Homo sapiens) (P35372 whole entry): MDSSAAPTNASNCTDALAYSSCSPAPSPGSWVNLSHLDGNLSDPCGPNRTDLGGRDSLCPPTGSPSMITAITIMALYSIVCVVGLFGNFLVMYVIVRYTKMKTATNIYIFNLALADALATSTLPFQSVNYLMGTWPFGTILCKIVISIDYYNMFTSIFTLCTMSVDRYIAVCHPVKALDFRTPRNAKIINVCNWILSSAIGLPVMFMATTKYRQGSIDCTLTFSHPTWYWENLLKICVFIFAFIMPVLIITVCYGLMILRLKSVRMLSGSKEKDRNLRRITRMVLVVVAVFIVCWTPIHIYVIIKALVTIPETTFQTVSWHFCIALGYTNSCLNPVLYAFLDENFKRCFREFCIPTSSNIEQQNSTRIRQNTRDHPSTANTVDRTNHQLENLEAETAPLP

[3] = molecular target: Histamine H1 receptor (Homo sapiens) (UniProt P35367); assay: H1/H Eurofins-Panlabs selectivity data (BI); conditions: Compound concentration 10.0 uM
Chain of Histamine H1 receptor (Homo sapiens) (P35367 whole entry): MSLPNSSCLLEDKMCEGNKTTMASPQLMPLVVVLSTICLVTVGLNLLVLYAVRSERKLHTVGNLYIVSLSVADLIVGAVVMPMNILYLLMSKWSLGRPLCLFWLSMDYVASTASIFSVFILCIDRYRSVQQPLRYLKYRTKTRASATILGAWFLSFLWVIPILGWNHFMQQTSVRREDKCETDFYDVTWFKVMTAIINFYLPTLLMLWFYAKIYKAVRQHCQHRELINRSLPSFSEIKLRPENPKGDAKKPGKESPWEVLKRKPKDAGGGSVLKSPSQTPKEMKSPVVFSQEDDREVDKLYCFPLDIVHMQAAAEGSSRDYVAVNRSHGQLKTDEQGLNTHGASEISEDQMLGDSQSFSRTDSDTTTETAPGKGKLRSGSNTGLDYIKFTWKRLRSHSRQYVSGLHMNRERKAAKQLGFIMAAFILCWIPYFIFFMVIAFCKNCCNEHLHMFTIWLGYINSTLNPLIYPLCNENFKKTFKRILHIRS

[4] = molecular target: T2, Dual specificity mitogen-activated protein kinase kinase 3 (Homo sapiens) (UniProt P46734); assay: MAP2K3 Invitrogen selectivity data (BI); conditions: Compound concentration 3.0 uM
T2 sequence (whole entry): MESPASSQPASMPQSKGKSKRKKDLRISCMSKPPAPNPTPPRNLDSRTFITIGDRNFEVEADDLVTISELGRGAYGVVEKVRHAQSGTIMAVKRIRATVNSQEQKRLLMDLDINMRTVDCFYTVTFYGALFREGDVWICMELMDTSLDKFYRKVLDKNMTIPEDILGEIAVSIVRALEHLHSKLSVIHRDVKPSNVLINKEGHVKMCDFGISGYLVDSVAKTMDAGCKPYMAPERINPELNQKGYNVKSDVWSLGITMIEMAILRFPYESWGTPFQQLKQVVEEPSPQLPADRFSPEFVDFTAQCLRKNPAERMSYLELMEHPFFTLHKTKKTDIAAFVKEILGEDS

[5] = molecular target: T3, Aurora kinase A (Homo sapiens) (UniProt O14965); assay: STK6 Invitrogen selectivity data (BI); conditions: Compound concentration 3.0 uM
T3 sequence (whole entry): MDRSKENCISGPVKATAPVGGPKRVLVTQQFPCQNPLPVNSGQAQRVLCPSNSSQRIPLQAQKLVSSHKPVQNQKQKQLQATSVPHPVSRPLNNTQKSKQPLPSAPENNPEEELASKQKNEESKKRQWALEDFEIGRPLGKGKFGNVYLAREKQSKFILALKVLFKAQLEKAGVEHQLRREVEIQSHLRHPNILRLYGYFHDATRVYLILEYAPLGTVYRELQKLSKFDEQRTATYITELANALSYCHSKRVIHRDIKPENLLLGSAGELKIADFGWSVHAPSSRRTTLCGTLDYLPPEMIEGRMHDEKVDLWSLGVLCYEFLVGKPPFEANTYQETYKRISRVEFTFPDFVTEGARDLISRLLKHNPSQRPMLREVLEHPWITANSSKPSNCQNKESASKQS

[6] = molecular target: Histamine H2 receptor (Homo sapiens) (UniProt P25021); assay: H2/H Eurofins-Panlabs selectivity data (BI); conditions: Compound concentration 10.0 uM
Chain of Histamine H2 receptor (Homo sapiens) (P25021 whole entry): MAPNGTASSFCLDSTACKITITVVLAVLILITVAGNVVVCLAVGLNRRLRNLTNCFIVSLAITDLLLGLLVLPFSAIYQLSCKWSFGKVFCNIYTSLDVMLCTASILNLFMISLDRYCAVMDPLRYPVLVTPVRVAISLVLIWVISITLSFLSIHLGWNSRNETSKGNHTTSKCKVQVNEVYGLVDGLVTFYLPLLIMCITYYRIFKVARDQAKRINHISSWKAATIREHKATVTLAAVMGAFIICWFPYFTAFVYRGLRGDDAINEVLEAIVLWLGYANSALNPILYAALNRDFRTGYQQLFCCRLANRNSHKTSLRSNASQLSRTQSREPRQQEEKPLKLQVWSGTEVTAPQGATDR

Measured: residual activity

CN(C)C(=O)Cn1cc(-c2nc([C@@](C)(c3ccc(-c4cnc(N)nc4)cc3)C3CC3)no2)cn1 [BI 665915]
inactive: [1] 93.5% | [2] 112% | [3] 103% | [4] 101% | [5] 75.5% | [6] 98%
